Patent US12569658B2, “Intranasal and olfactory delivery devices and methods of use” (Rocket Science Health Corp., priority 2023, dated 2026)

Assay: Lateralized olfactory delivery of oxytocin via cannula into the right nostril; brain distribution by mass spectrometry imaging (MSI)
Format: in vivo, Sprague-Dawley male rats
Settings: for Blue Pixel Count (intensity corresponding to oxytocin): 30 mg/kg, 25 μL into right nostril, 2 hours, pixels with B-value exceeding 180
Experimental: Sprague-Dawley male rats (150˜250 g) n=3 per time point×2 time points were used in this study. Animals were fasted per facility protocols (free access to water). Sedation by 50 mg/kg pentobarbital or equivalent procedure and maintenance with isoflurane. Test article administration: The animal is kept supine with the head kept at an angle to minimize movement of the olfactory plane above zero degrees (to prevent gravity drainage into the olfactory cleft). In this study Oxytocin (30 mg/kg) was delivered via the canulated olfactory delivery model which is: a 0.699 mm diameter cannula with lipophilic ointment spread on the catheter which is carefully inserted into the right nostril with a minimal angle of 20° to the target of the correct meatus. The left nostril is occluded with a non-toxic quick setting compound to prevent cross contamination. During insertion the catheter is rotated gently to advance it through the tight nasal cavity. Once the catheter reaches the ethmoid turbinate it cannot be advance gently anymore (˜15 mm). 25 μL of oxytocin is slowly instilled in the olfactory region (FIGS. 23A-B). The animals were kept sedated for 2 hours. After 2 hours, the animals were humanely euthanized by cervical dislocation. Sample collection: Olfactory bulb and brain: Rats olfactory bulb and brain were collected and snap-freeze in liquid nitrogen. The tissue was stored at −80 C until analysis. Sample Preparation: Olfactory bulb and brain samples was homogenized with ice-cold phosphate buffer saline (pH 7.4) at a ratio of 4 (buffer): 1 (tissue) (v/w). An aliquot of 20 μL homogenate was spiked into 1.5 mL tube, and 100 μL of acetonitrile containing internal standard were added for protein precipitation. The mixture was vortexed, centrifuged at 14000 rpm for 5 min. 80 μL supernatant was transferred into a 96 well plate, and 240 μL of sterile deionized water was added, the mixture was vortexed and injected for LC-MS/MS analysis.
Sample analysis: Test compound in olfactory bulb, brain, and plasma samples will be analyzed by LC/MS/MS. Calibration curve was constructed in blank olfactory bulb homogenate. Using a High-throughput RapifleX MALDI-TOF/TOF mass spectrometer the samples were analyzed utilizing non-labeled detection technologies. This is important as this technique explores the regional distribution patterns of target molecule (FIG. 24). The frozen section of brain tissue was cut into 12 μm sections. Oxytocin at 200, […], 50, 20, 10, 5, 2 ng were used as standard in blank brain slide. And substrate were sprayed on the slides. The sample of the tissue section was ionized and desorbed with the substrate under the excitation of the laser beam. The released ions were identified with mass spectrometer. The detection levels were 2.68 ng/mm^2 (FIGS. 25A-D). To visualize the lateralized drug transfer through the brain the brain was sectioned into olfactory bulb, striatum and cerebrum sections (FIG. 26) and imaged with the Mass Spectrometry Imaging (MSI) system.
The images shown in FIGS. 27A-C were analyzed to estimate the relative concentration of oxytocin on each side of the brain. Image data was converted into a standard RGB color-map, with each of the red (R), green (G), and blue (B) values taking a value between 0 and 255. Pixels with B-values exceeding 180 were counted on each side of the brain, yielding the results in Table 1.

CC[C@H](C)[C@@H]1NC(=O)[C@H](Cc2ccc(O)cc2)NC(=O)[C@@H](N)CSSC[C@@H](C(=O)N2CCC[C@H]2C(=O)N[C@@H](CC(C)C)C(=O)NCC(N)=O)NC(=O)[C@H](CC(N)=O)NC(=O)[C@H](CCC(N)=O)NC1=O [oxytocin, Oxytocin]
ratio of blue pixels, targeted over untargeted half of the brain (Cerebrum, 921/638): 1.44 | Blue Pixel Count (intensity corresponding to oxytocin) (Cerebrum, Left hemisphere (untargeted)): 638 | Blue Pixel Count (intensity corresponding to oxytocin) (Cerebrum, Right hemisphere (targeted)): 921 | ratio of blue pixels, targeted over untargeted half of the brain (Olfactory, 962/475): 2.03 | Blue Pixel Count (intensity corresponding to oxytocin) (Olfactory, Left hemisphere (untargeted)): 475 | Blue Pixel Count (intensity corresponding to oxytocin) (Olfactory, Right hemisphere (targeted)): 962 | ratio of blue pixels, targeted over untargeted half of the brain (Striatum, 7055/4085): 1.73 | Blue Pixel Count (intensity corresponding to oxytocin) (Striatum, Left hemisphere (untargeted)): 4085 | Blue Pixel Count (intensity corresponding to oxytocin) (Striatum, Right hemisphere (targeted)): 7055 | excess drug concentration on the targeted side of the brain (across the three studied regions (Cerebrum, Olfactory, Striatum)): 44-103% | distribution of oxytocin by MSI (FIG. 27C) (cerebrum slice): lateralization coinciding with the targeted (right) hemisphere | distribution of oxytocin by MSI (FIG. 27A) (olfactory bulb slice): preferential right side distribution | distribution of oxytocin by MSI (FIG. 27B) (striatum slice): continued preferential right side distribution
